Results taken from patent US9808003B2, “Herbicidally active 2-(substituted-phenyl)-cyclopentane-1,3-dione compounds and derivatives thereof” (Syngenta Limited, priority 2013, dated 2017).

Legend:
Test in all cases: Test 1A glasshouse assay, post-emergence herbicidal activity
Type in all cases: in vivo
[1] = tested on: Lolium perenne (LOLPE); settings: Lolium perenne, 312 h, application rate 250 g/ha, 13 days after application, visual (100%=total damage; 0%=no damage), read-out: Post-emergence Herbicidal Activity (% Phytotoxicity) LOLPE
Outline: (§1)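 Post-emergence: plants sprayed after 8 days' glasshouse growth (24/16° C, 14 h light, 65% humidity) with acetone/water (50:50) formulation containing 0.5% Tween 20. Visual % phytotoxicity (0 = none, 100 = total damage) scored 13 days after application.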

[2] = tested on: Echinochloa crus-galli (ECHCG); settings: Echinochloa crus-galli, 312 h, application rate 250 g/ha, 13 days after application, visual (100%=total damage; 0%=no damage), read-out: Post-emergence Herbicidal Activity (% Phytotoxicity) ECHCG
Outline: as §1

[3] = tested on: Alopecurus myosuroides (ALOMY); settings: Alopecurus myosuroides, 312 h, application rate 250 g/ha, 13 days after application, visual (100%=total damage; 0%=no damage), read-out: Post-emergence Herbicidal Activity (% Phytotoxicity) ALOMY
Outline: as §1

[4] = tested on: Avena fatua (AVEFA); settings: Avena fatua, 312 h, application rate 250 g/ha, 13 days after application, visual (100%=total damage; 0%=no damage), read-out: Post-emergence Herbicidal Activity (% Phytotoxicity) AVEFA
Outline: as §1

| SMILES | pest or weed control at 250 g/ha [1] [%] | pest or weed control at 250 g/ha [2] [%] | pest or weed control at 250 g/ha [3] [%] | pest or weed control at 250 g/ha [4] [%] |
| --- | --- | --- | --- | --- |
| Cc1cc(C)c(C2C(=O)CC(CCNC(=O)c3ccc(C=C(F)F)cn3)C2=O)c(C)c1 (centres unmarked) [Compound A190] | 90 | 90 | 80 | 90 |
| Cc1cc(-n2cc(Cl)cn2)cc(C)c1C1C(=O)CC(CCNC(=O)c2nc(Br)ccc2F)C1=O (centres unmarked) [Compound A191] | 90 | 100 | 100 | 100 |
| CC#Cc1ccc(C(=O)NCCC2CC(=O)C(c3c(C)cc(C)cc3C)C2=O)nc1 (centres unmarked) [Compound A192] | 100 | 100 | 80 | 90 |
| Cc1cc(C)c(C2C(=O)CC(CCNC(=O)c3nc(Br)ccc3F)C2=O)c(C)c1 (centres unmarked) [Compound A193] | 100 | 90 | 90 | 90 |
| Cc1cc(C)c(C2C(=O)CC(CCNC(=O)c3nccnc3Cl)C2=O)c(C)c1 (centres unmarked) [Compound A194] | 90 | 100 | 80 | 90 |
| Cc1cc(C)c(C2C(=O)CC(CCNC(=O)c3cnc(Cl)cn3)C2=O)c(C)c1 (centres unmarked) [Compound A195] | 60 | 80 | 30 | 30 |
| Cc1cc(C)c(C2C(=O)CC(CCNC(=O)c3cncc(Cl)n3)C2=O)c(C)c1 (centres unmarked) [Compound A196] | 90 | 100 | 80 | 90 |
| Cc1cc(Br)cc(Br)c1C1C(=O)CC(CCNC(=O)c2ccccn2)C1=O (centres unmarked) [Compound A197] | 60 | 100 | 90 | 70 |
| Cc1cc(-c2cc(Cl)cc(Cl)c2)cc(C)c1C1C(=O)CC(CCNC(=O)c2ccccn2)C1=O (centres unmarked) [Compound A203] | 80 | 100 | 80 | 100 |
| Cc1ccc(-c2cc(C)c(C3C(=O)CC(CCNC(=O)c4ccccn4)C3=O)c(C)c2)cc1 (centres unmarked) [Compound A204] | 100 | 100 | 90 | 90 |
| Cc1cc(C)c(C2C(=O)CC(CCNC(=O)c3snc(Cl)c3Cl)C2=O)c(C)c1 (centres unmarked) [Compound A212] | 70 | 70 | 30 | 50 |
| Cc1cc(C)c(C2C(=O)CC(CCNC(=O)c3sc(Cl)nc3C(F)(F)F)C2=O)c(C)c1 (centres unmarked) [Compound A213] | 60 | 50 | 10 | 10 |
| COC(=O)OC(C)OC1=C(c2c(C)cc(C)cc2C)C(=O)C(CCNC(=O)c2ccc(Br)cn2)C1 (centres unmarked) [Compound P3] | 100 | 100 | 90 | 100 |
| CCSC(=O)OC1=C(c2c(C)cc(C)cc2C)C(=O)CC1CCNC(=O)c1ccc(Br)cn1 (centres unmarked) [Compound P10] | 100 | 100 | 100 | 100 |
| CCOC(=O)OC1=C(c2c(C)cc(C)cc2C)C(=O)C(CCNC(=O)c2ccc(Br)cn2)C1 (centres unmarked) [Compound P11] | 100 | 100 | 100 | 100 |
| CCCCC(=O)OC1=C(c2c(C)cc(C)cc2C)C(=O)C(CCNC(=O)c2ccc(Br)cn2)C1 (centres unmarked) [Compound P12] | 100 | 100 | 100 | 100 |
| Cc1cc(C)c(C2=C(OC(=O)C(C)(C)C)CC(CCNC(=O)c3ccc(Br)cn3)C2=O)c(C)c1 (centres unmarked) [Compound P13] | 100 | 100 | 100 | 100 |
| Cc1cc(-n2cc(Cl)cn2)cc(C)c1C1=C(OC(=O)c2ccc(F)cc2)CC(CCNC(=O)c2ccccn2)C1=O (centres unmarked) [Compound P14] | 100 | 100 | 100 | 100 |
| CCCCS(=O)(=O)OC1=C(c2c(C)cc(-n3cc(Cl)cn3)cc2C)C(=O)C(CCNC(=O)c2ccccn2)C1 (centres unmarked) [Compound P15] | 100 | 100 | 100 | 100 |
| Cc1cc(-n2cc(Cl)cn2)cc(C)c1C1=C(OS(=O)(=O)c2ccc(F)cc2)CC(CCNC(=O)c2ccccn2)C1=O (centres unmarked) [Compound P16] | 100 | 100 | 100 | 90 |
| Cc1cc(C)c(C2=C(OC(=O)c3ccc(F)cc3)CC(CCNC(=O)c3ccc(Br)cn3)C2=O)c(C)c1 (centres unmarked) [Compound P17] | 100 | 100 | 100 | 100 |
| CCCCS(=O)(=O)OC1=C(c2c(C)cc(C)cc2C)C(=O)C(CCNC(=O)c2ccc(Br)cn2)C1 (centres unmarked) [Compound P18] | 100 | 100 | 100 | 90 |
| Cc1cc(C)c(C2=C(OS(=O)(=O)c3ccc(F)cc3)CC(CCNC(=O)c3ccc(Br)cn3)C2=O)c(C)c1 (centres unmarked) [Compound P19] | 100 | 100 | 100 | 100 |
| CCOCOC1=C(c2c(C)cc(C)cc2C)C(=O)C(CCNC(=O)c2ccc(Br)cn2)C1 (centres unmarked) [Compound P20] | 100 | 100 | 100 | 100 |
| Cc1cc(-n2cc(Cl)cn2)cc(C)c1C1=C(OC(=O)N2CCCC2)CC(CCNC(=O)c2ccccn2)C1=O (centres unmarked) [Compound P21] | 70 | 100 | 80 | 80 |
| Cc1cc(C)c(C2=C(OC(=O)N3CCCC3)CC(CCNC(=O)c3ccc(Br)cn3)C2=O)c(C)c1 (centres unmarked) [Compound P22] | 100 | 100 | 90 | 100 |
